# Assay results: the supplement of paper PMC10307832
# Experiments:
# Experiment in all cases: relative viability (nuclei count vs DMSO), 5 days (fraction); higher = more cells survive
# SGI-1776 + OSI-027 = compound: CN1CCC(CNc2ccc3ncc(-c4cccc(OC(F)(F)F)c4)n3n2)CC1 [SGI-1776] + COc1cccc2cc(-c3nc([C@H]4CC[C@H](C(=O)O)CC4)n4ncnc(N)c34)[nH]c12 [OSI-027] (partner 0.5 µM)
# In short: (§1)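 Cells from lung cancer lines were seeded into 1536-well plates and, one day later, dosed by pin tool. Treatments were either a single drug or a fixed dose of an anchor drug with five library-drug doses (not always all listed) in √10 steps. After 5 days, nuclei were stained in a one-step fixation (final 0.05% Triton X-100, 1% formaldehyde, 1 ug/ml Hoechst) and counted on 4× images, and relative viability is the treated-to-vehicle nuclei ratio, as the median of duplicate plates.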
# SGI-1776 + Olaparib = compound: CN1CCC(CNc2ccc3ncc(-c4cccc(OC(F)(F)F)c4)n3n2)CC1 [SGI-1776] + O=C(c1cc(Cc2n[nH]c(=O)c3ccccc23)ccc1F)N1CCN(C(=O)C2CC2)CC1 [Olaparib] (partner 8 µM)
# In short: as §1
# Entinostat + Pictilisib = compound: Nc1ccccc1NC(=O)c1ccc(CNC(=O)OCc2cccnc2)cc1 [Entinostat] + CS(=O)(=O)N1CCN(Cc2cc3nc(-c4cccc5[nH]ncc45)nc(N4CCOCC4)c3s2)CC1 [Pictilisib] (partner 1 µM)
# In short: as §1
# Entinostat + Olaparib = compound: Nc1ccccc1NC(=O)c1ccc(CNC(=O)OCc2cccnc2)cc1 [Entinostat] + O=C(c1cc(Cc2n[nH]c(=O)c3ccccc23)ccc1F)N1CCN(C(=O)C2CC2)CC1 [Olaparib] (partner 8 µM)
# In short: as §1
Cell Line,relative viability (SGI-1776 + OSI-027; first compound 0.08 µM),relative viability (SGI-1776 + OSI-027; first compound 0.8 µM),relative viability (SGI-1776 + OSI-027; first compound 2.53 µM),relative viability (SGI-1776 + OSI-027; first compound 8 µM),relative viability (SGI-1776 + Olaparib; first compound 0.08 µM),relative viability (SGI-1776 + Olaparib; first compound 0.8 µM),relative viability (SGI-1776 + Olaparib; first compound 2.53 µM),relative viability (SGI-1776 + Olaparib; first compound 8 µM),relative viability (Entinostat + Pictilisib; first compound 0.02 µM),relative viability (Entinostat + Pictilisib; first compound 0.06325 µM),relative viability (Entinostat + Pictilisib; first compound 0.2 µM),relative viability (Entinostat + Pictilisib; first compound 0.6325 µM),relative viability (Entinostat + Pictilisib; first compound 2 µM),relative viability (Entinostat + Olaparib; first compound 0.02 µM),relative viability (Entinostat + Olaparib; first compound 0.06325 µM),relative viability (Entinostat + Olaparib; first compound 0.2 µM),relative viability (Entinostat + Olaparib; first compound 0.6325 µM),relative viability (Entinostat + Olaparib; first compound 2 µM)
NCI-H1734,0.686,0.645,0.615,0.403,0.69,0.691,0.715,0.567,0.454,0.513,0.459,0.41,0.289,0.0279,0.637,0.621,0.563,0.356
NCI-H1651,0.81,0.683,0.677,0.529,0.205,0.187,0.18,0.174,0.624,0.674,0.572,0.452,0.365,0.2,0.199,0.199,0.174,0.154
NCI-H838,0.414,0.401,0.308,0.246,0.776,0.754,0.695,0.56,0.439,0.613,0.72,0.461,0.237,0.819,0.79,0.759,0.452,0.201
NCI-H1915,0.642,0.645,0.618,0.49,0.256,0.265,0.248,0.23,0.899,0.94,0.844,0.328,0.218,0.244,0.274,0.23,0.21,0.144
COR-L23,0.781,0.87,0.74,0.582,0.345,0.396,0.377,0.275,0.714,0.728,0.588,0.257,0.141,0.323,0.311,0.347,0.184,0.127
ChaGo-K-1,0.619,0.61,0.39,0.413,0.393,0.487,0.405,0.45,0.917,0.645,0.68,0.411,0.471,0.426,0.425,0.497,0.358,0.331
HOP-62,0.882,0.866,0.802,0.81,0.436,0.63,0.448,0.59,0.578,0.743,0.603,0.139,0.0745,0.36,0.391,0.373,0.147,0.128
NCI-H1975,0.72,0.688,0.525,0.428,0.877,0.791,0.73,0.638,0.206,0.245,0.228,0.151,0.139,0.73,0.637,0.484,0.324,0.211
BEN,0.316,0.289,0.264,0.323,1.01,1.15,1.07,0.966,0.594,0.673,0.453,0.282,0.188,1.22,1.15,1.09,0.64,0.371
